Experimental findings from PubChem BioAssay AID296 (DTP/NCI, 2004) are described below.

The experiment relates to MX-1 breast xenograft, nude mice, tumor weight T/C. As to the kind of experiment: NCI In Vivo Anticancer Drug Screen. Data for tumor model Human Mammary Carcinoma MX-1 Xenograft (intrarenal inoculation) in NU/NU Swiss (nude) mice. The settings on record: endpoint: mean tumor weight change, higher = larger tumour. The procedure, abridged:
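Mice carrying the implanted tumor receive either test agent or vehicle. Tumor size or survival is then recorded for both groups. Results are stated as the treated-to-control quotient.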

[1] abbreviates: dose: 300.0 mg/kg/injection, schedule: Q04DX003 (sc), vehicle: saline with Tween-80.
Setting [2] is: dose: 600.0 mg/kg/injection, schedule: Q04DX003 (sc), vehicle: saline with Tween-80.
Setting [3] is: dose: 1200.0 mg/kg/injection, schedule: Q04DX003 (sc), vehicle: saline with Tween-80.
The mark [4] stands for this setting: dose: 200.0 mg/kg/injection, schedule: Q04DX003 (sc), vehicle: saline with Tween-80.
The mark [5] stands for this setting: dose: 2400.0 mg/kg/injection, schedule: Q04DX003 (sc), vehicle: saline with Tween-80.
The mark [6] stands for this setting: dose: 400.0 mg/kg/injection, schedule: Q04DX003 (sc), vehicle: saline with Tween-80.
Where [7] appears, read: dose: 800.0 mg/kg/injection, schedule: Q04DX003 (sc), vehicle: saline with Tween-80.

“And” between values parts separate entries of the source, which are not always exact repeats. Equal values may be shown once. Records with an inconclusive call do not appear.

For `CC[C@@]1(O)C[C@H](OC2CC(N(C)C)C(OC3CC(O)C(OC4CCC(=O)C(C)O4)C(C)O3)C(C)O2)c2c(cc3c(c2O)C(=O)c2c(O)cccc2C3=O)[C@H]1C(=O)OC` (some centres not stated), the T/C by setting is: (dose: 0.25 mg/kg/injection, schedule: Q01DX010 (sc), vehicle: water) 91 % of control; (dose: 0.5 mg/kg/injection, schedule: Q01DX010 (ip), vehicle: water) 74 % of control and 78 % of control; (dose: 0.5 mg/kg/injection, schedule: Q01DX010 (sc), vehicle: water) 113 % of control; (dose: 1.0 mg/kg/injection, schedule: Q01DX010 (sc), vehicle: water) 35 % of control; (dose: 2.0 mg/kg/injection, schedule: Q01DX010 (ip), vehicle: water) 7 % of control; (dose: 4.0 mg/kg/injection, schedule: Q01DX010 (sc), vehicle: water) 65 % of control.

In the case of `CC(=O)C(=O)O.CC(=O)C(=O)O.[NH-]C1CCCCC1[NH-].[Pt+2]` (configuration not stated), the T/C (dose: 6.25 mg/kg/injection, schedule: Q04DX003 (ip), vehicle: other) was 46 % of control; the T/C (dose: 12.5 mg/kg/injection, schedule: Q04DX003 (ip), vehicle: other) was 74 % of control; the T/C (dose: 25.0 mg/kg/injection, schedule: Q04DX003 (ip), vehicle: other) was 45 % of control; the T/C (dose: 50.0 mg/kg/injection, schedule: Q04DX003 (ip), vehicle: other) was 12 % of control; the T/C (dose: 100.0 mg/kg/injection, schedule: Q04DX003 (ip), vehicle: other) was 9 % of control.

Turning to `O=Cc1ccc(O)c(O)c1`, the T/C under setting [1] was 181 % of control.

For the compound `NC(=S)N/N=C/c1ccc(OC(=O)COc2ccccc2)cn1`, the T/C was 101 % of control under setting [1], 103 % of control under setting [2] and 76 % of control under setting [3].

As for `O=C[C@@H](CO)O[C@H](C=O)n1cnc2c(=O)[nH]cnc21`, the T/C runs as follows: (dose: 100.0 mg/kg/injection, schedule: Q04DX003 (sc), vehicle: saline with Tween-80) 41 % of control; under setting [4], 39 % of control and 63 % of control; under setting [1], 47 % of control.

Take `Cc1oc2c(C)c3oc(=O)cc(C)c3cc2c1CCl`: the T/C runs as follows: under setting [1], 109 % of control; under setting [2], 75 % of control; under setting [3], 83 % of control; under setting [5], 54 % of control.

Take `CC(C)(C)NC(C1=CC(C)(C)c2ccccc2C1=O)c1ccccc1` (configuration not stated): the T/C by setting is: (dose: 150.0 mg/kg/injection, schedule: Q04DX003 (ip), vehicle: Klucel (hydroxypropylcellulose) (HPC)) 87 % of control; (dose: 300.0 mg/kg/injection, schedule: Q04DX003 (ip), vehicle: Klucel (hydroxypropylcellulose) (HPC)) 75 % of control.

Consider `CN(C)N=Nc1ccccc1`, for which the T/C (dose: 100.0 mg/kg/injection, schedule: Q04DX003 (sc), vehicle: Klucel (hydroxypropylcellulose) (HPC)) was 36 % of control.

Take `CC1=CC(C)(C)Nc2ccc(CSc3ccccc3)cc21`: the T/C is, setting by setting: (dose: 25.0 mg/kg/injection, schedule: Q01DX010 (sc), vehicle: saline + Tween-80 + alcohol) 85 % of control; (dose: 50.0 mg/kg/injection, schedule: Q01DX010 (sc), vehicle: saline + Tween-80 + alcohol) 153 % of control; (dose: 100.0 mg/kg/injection, schedule: Q01DX010 (sc), vehicle: saline + Tween-80 + alcohol) 79 % of control and 102 % of control; (dose: 200.0 mg/kg/injection, schedule: Q01DX010 (sc), vehicle: saline + Tween-80 + alcohol) 89 % of control.

Regarding `CCCCN(CCCC)C(Cl)=Nc1ccccc1`, the T/C reads like this: (dose: 800.0 mg/kg/injection, schedule: Q04DX003 (sc), vehicle: other) 89 % of control; (dose: 1600.0 mg/kg/injection, schedule: Q04DX003 (sc), vehicle: other) 124 % of control.

Turning to `CN(C)c1ccc2c(NCCCCCCNc3ccnc4cc(N(C)C)ccc34)ccnc2c1`, the T/C runs as follows: (dose: 37.5 mg/kg/injection, schedule: Q04DX003 (sc), vehicle: distilled water + Tween-80 + alcohol) 72 % of control; (dose: 75.0 mg/kg/injection, schedule: Q04DX003 (sc), vehicle: distilled water + Tween-80 + alcohol) 63 % of control and 64 % of control; (dose: 600.0 mg/kg/injection, schedule: Q04DX003 (sc), vehicle: distilled water + Tween-80 + alcohol) 34 % of control and 54 % of control.

On to `Nc1ncn(C2CC(O)C(CO)O2)c(=O)n1` (configuration not stated), for which the T/C (dose: 0.2 mg/kg/injection, schedule: Q01DX010 (sc), vehicle: saline) is 114 % of control.

On to `C[C@]12CC[C@@H]3c4ccc(OC(=O)Cc5ccc(N(CCCl)CCCl)cc5)cc4CC[C@H]3[C@@H]1CC[C@@H]2OC(=O)Cc1ccc(N(CCCl)CCCl)cc1`, for which the T/C is 58 % of control under setting [4]; 50 % of control under setting [6]; 33 % of control under setting [7]; 36 % of control under setting [3]; 7 % of control and 26 % of control (dose: 1600.0 mg/kg/injection, schedule: Q04DX003 (sc), vehicle: saline with Tween-80); 21 % of control (dose: 2000.0 mg/kg/injection, schedule: Q04DX003 (sc), vehicle: saline with Tween-80). Under setting [5], the T/C was 35 % of control.

Consider `O=C1NC(=O)C2C3C=CC(C12)C1C2C(=O)NC(=O)C2C31` (configuration not stated), for which the T/C is 68 % of control under setting [6] and 57 % of control under setting [7].

Turning to `CC1=CC(=Nc2ccc(N(CCCl)CCCl)cc2)C=C(C)C1=O`, the T/C by setting is: (dose: 150.0 mg/kg/injection, schedule: Q04DX003 (sc), vehicle: Klucel (hydroxypropylcellulose) (HPC)) 34 % of control; (dose: 2400.0 mg/kg/injection, schedule: Q04DX003 (sc), vehicle: Klucel (hydroxypropylcellulose) (HPC)) -89 % of control.

On to `Cc1c2c(ccc3ccccc32)c[n+]2ccccc12`, for which the T/C (dose: 3.13 mg/kg/injection, schedule: Q01DX010 (sc), vehicle: saline) is 101 % of control; the T/C (dose: 6.25 mg/kg/injection, schedule: Q01DX010 (sc), vehicle: saline) is 82 % of control; the T/C (dose: 12.5 mg/kg/injection, schedule: Q01DX010 (sc), vehicle: saline) was 25 % of control.

`CC1CCC(NC(=O)N(CCCl)N=O)CC1` (configuration not stated): the T/C is, setting by setting: (dose: 6.25 mg/kg/injection, schedule: Q01DX010 (sc), vehicle: Klucel (hydroxypropylcellulose) (HPC)) 74 % of control; (dose: 12.5 mg/kg/injection, schedule: Q01DX010 (sc), vehicle: Klucel (hydroxypropylcellulose) (HPC)) 78 % of control.

`CC(=O)OC1COC(NC(=O)N(CCCl)N=O)C(OC(C)=O)C1OC(C)=O` (configuration not stated): the T/C is 105 % of control (dose: 4.5 mg/kg/injection, schedule: Q04DX003 (sc), vehicle: saline with Tween-80); 77 % of control (dose: 9.0 mg/kg/injection, schedule: Q04DX003 (sc), vehicle: saline with Tween-80); 110 % of control (dose: 18.0 mg/kg/injection, schedule: Q04DX003 (sc), vehicle: saline with Tween-80); 82 % of control (dose: 36.0 mg/kg/injection, schedule: Q04DX003 (sc), vehicle: saline with Tween-80).

With `COC(=O)C12OCC34C(CC5C(C)=CC(=O)C(O)C5(C)C3C(O)C1O)OC(=O)C(OC(=O)CC(C)C)C24` (configuration not stated), the T/C reads like this: (dose: 1.5 mg/kg/injection, schedule: Q04DX003 (sc), vehicle: saline + alcohol) 107 % of control; (dose: 3.0 mg/kg/injection, schedule: Q04DX003 (sc), vehicle: saline + alcohol) 58 % of control.

For `Cc1cc(=O)n2c3c(c4c(cc13)c(CN(C)C)cc(=O)n4C)OC2`, the T/C is, setting by setting: (dose: 75.0 mg/kg/injection, schedule: Q04DX003 (sc), vehicle: saline with Tween-80) 109 % of control; (dose: 150.0 mg/kg/injection, schedule: Q04DX003 (sc), vehicle: saline with Tween-80) 151 % of control; under setting [1], 80 % of control.

For `CCC(C(=O)O)C(=O)O.[NH2-].[NH2-].[Pt+2]`, the T/C (dose: 75.0 mg/kg/injection, schedule: Q04DX003 (sc), vehicle: saline) was -95 % of control; the T/C (dose: 150.0 mg/kg/injection, schedule: Q04DX003 (sc), vehicle: saline) is -82 % of control; the T/C (dose: 300.0 mg/kg/injection, schedule: Q04DX003 (sc), vehicle: saline) was -99 % of control.

Regarding `CC(C)[C@](O)(C(=O)OCC1=CCN2CC[C@@H](O)[C@@H]12)[C@H](C)O`, the T/C is 56 % of control (dose: 300.0 mg/kg/injection, schedule: Q04DX003 (sc), vehicle: water); 65 % of control (dose: 600.0 mg/kg/injection, schedule: Q04DX003 (sc), vehicle: water); 53 % of control (dose: 1200.0 mg/kg/injection, schedule: Q04DX003 (sc), vehicle: water); 51 % of control (dose: 2400.0 mg/kg/injection, schedule: Q04DX003 (sc), vehicle: water).
